For data set [1], the target named is recombinant human CCR5 receptor (Homo sapiens, UniProt P51681). In words: in vitro radioligand binding assay: inhibition of MIP-1α binding. The note with it: displacement of 0.1 nM iodinated MIP-1α; membranes from Chinese hamster ovary cells expressing recombinant human CCR5; scintillation proximity; average if tested more than once. How it is done: The ability of compounds to inhibit the binding of MIP-1α was assessed by an in vitro radioligand binding assay. Membranes were prepared from Chinese hamster ovary cells which expressed the recombinant human CCR5 receptor. These membranes were incubated with 0.1 nM iodinated MIP-1α, scintillation proximity beads and various concentrations of the compounds of the invention in 96-well plates. The amount of iodinated MIP-1α bound to the receptor was determined by scintillation counting. Competition curves were obtained for compounds and the concentration of compound which displaced 50% of bound iodinated MIP-1α was calculated (IC50).
Sequence of recombinant human CCR5 receptor (P51681 whole entry): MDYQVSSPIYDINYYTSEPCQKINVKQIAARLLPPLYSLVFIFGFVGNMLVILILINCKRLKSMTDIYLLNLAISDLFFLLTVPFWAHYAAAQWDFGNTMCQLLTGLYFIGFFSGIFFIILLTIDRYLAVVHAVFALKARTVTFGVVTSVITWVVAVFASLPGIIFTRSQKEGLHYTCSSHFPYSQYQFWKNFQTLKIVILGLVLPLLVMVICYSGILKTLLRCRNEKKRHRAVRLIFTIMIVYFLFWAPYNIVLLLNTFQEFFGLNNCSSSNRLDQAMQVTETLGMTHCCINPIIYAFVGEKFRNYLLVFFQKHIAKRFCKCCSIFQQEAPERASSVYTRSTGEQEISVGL
In Table XII the results are presented as Pic50 values. A Pic50 value is the negative log (to base 10) of the IC50 result, so an IC50 of 1 μM (that is 1×10^−6M) gives a Pic50 of 6. If a compound was tested more than once then the data below is an average of the probative tests results.
In general terms: Scintillation proximity formats need no separation of bound from free tracer.

Each structure is given as a SMILES string.

The results in this text go back to patent US7615555B2, “Piperidine derivatives as modulators of chemokine receptor CCR5” (AstraZeneca AB, priority 2004, dated 2009).

For `CCS(=O)(=O)N1CCN(C(CCN2CCC(n3cnc4cc(S(C)(=O)=O)ccc43)CC2)c2ccccc2)CC1` (stereo not shown) [Table I Compound 1, 1-(1-{3-[4-(ethylsulfonyl)piperazin-1-yl]-3-phenylpropyl}piperidin-4-yl)-5-(methylsulfonyl)-1H-benzimidazole], the IC50 in data set [1] was 251 nM.
Consider `CS(=O)(=O)c1ccc2c(c1)ncn2C1CCN(CC[C@@H](c2cc(F)cc(F)c2)C2CCN(S(C)(=O)=O)CC2)CC1` [Table II Compound 5, 1-(1-{(3R)-3-(3,5-difluorophenyl)-3-[1-(methylsulfonyl)piperidin-4-yl]propyl}piperidin-4-yl)-5-(methylsulfonyl)-1H-benzimidazole], for which the melting point is 161 °C. Further, in data set [1], the IC50 is 0.501 nM.
In the case of `Cc1nnc(C(C)C)n1C1CCN(CC[C@@H](c2ccccc2)N2CCN(S(=O)(=O)c3ccccc3)CC2)CC1` [Table II Compound 1, 1-{(1S)-3-[4-(3-isopropyl-5-methyl-4H-1,2,4-triazol-4-yl)piperidin-1-yl]-1-phenylpropyl}-4-(phenylsulfonyl)piperazine], the IC50 in data set [1] was 31.6 nM.

Usually IC50 stands for the concentration needed to halve the response being measured. A word on the melting point: it is the temperature, or range, at which the solid turns liquid.
